One may read the IC50 as the midpoint of a concentration-inhibition curve.

This assay relates to TEAD-dependent transcription. As to the kind of experiment: TEAD-dependent transcription cell-based reporter assay (MSTO-211H+12XGTIIC luciferase). On the set-up: species or system human. As to conditions: Homo sapiens; MSTO-211H+12XGTIIC cell line, luciferase signal normalized to cell viability, 24 hours compound incubation; read-out: MSTO-211H GMean IC50 (uM) Cell Assay Reporter Cell Variant: TEAD. From the text: Determine Inhibitor Activity Against TEAD-Dependent Transcription in a Cell-Based Reporter Assay
The human mesothelioma cell line MSTO-211H was stably transfected with a pGL4.21 plasmid containing a synthetic promoter with 12 copies of the GTIIC TEAD response element that drives the expression of a luciferase reporter gene^1 using Lipofectamine transfection reagent (Thermo Fisher). Transfected cells were selected using puromycin and single cell clones expressing this construct (referred to as MSTO-211H+12XGTIIC) were generated by limiting dilution. MSTO-211H cells was characterized by genetic alterations in key components of the Hippo pathway^2, resulting in up-regulation of YAP/TEAD-mediated transcription. […] To evaluate TEAD inhibitors, the MSTO-211H+12XGTIIC cell line was seeded in a 96-well plate in 50 μL of culture media at 1×10^4 cells per well and incubated at 37° C. overnight. Serial dilutions of compounds (in total volume of 50 μL of culture media) were added to the cells and incubated at 37° C. for 24 hours. Each plate included cells treated with DMSO as high controls and cells treated with 20 μM of the reference compound K-975 (a known TEAD inhibitor)^3 as low controls. Cell viability was assayed by the addition of 25 μL of CellTiter-Fluor reagent (Promega) followed by a 30-minute incubation at 37° C. and quantification of the fluorescence signal (Ex400/Em505). Subsequently, luciferase expression was assayed by the addition of 25 μL of ONE-Glo reagent (Promega) followed by a 10-minute incubation at room temperature and quantification of the luminescence signal. The luminescence signal was normalized to the fluorescence signal to correct for any loss in cell viability over the 24-hour compound incubation period. The percentage of inhibition of normalized luminescence signal, indicative of compound-mediated inhibition of TEAD-dependent transcription, at individual compound concentrations relative to high and low controls was calculated. The data were analyzed by using nonlinear regression to generate IC50 values for individual compounds.
For `CN(C(=O)N1CCc2ccc(Oc3ccc(C(F)(F)F)cc3)cc2C1)C1CCS(=O)(=O)C1` (stereo not shown) [P-0065, N-(1,1-dioxidotetra-hydrothiophen-3-yl)-N-methyl-7-(4-(trifluoro-methyl)phenoxy)-3,4-dihydroisoquinoline-2(1H)-carboxamide], the IC50 was in the range of 0.001 to 10 µM.

Regarding `CN(CCC#N)C(=O)N1CCc2ccc(Oc3ccc(C(F)(F)F)cc3)cc2C1` [P-0066], the IC50 was 0.001 to 10 µM. For the compound `O=C(CCO)N1CCc2ccc(Oc3ccc(C(F)(F)F)cc3)cc2C1` [P-0067, 3-hydroxy-1-(7-(4-(trifluoromethyl)phen-oxy)-3,4-dihydroiso-quinolin-2(1H)-yl)-propan-1-one], the IC50 was 0.001 to 10 µM.

With `CNCCC(=O)N1CCc2ccc(Oc3ccc(C(F)(F)F)cc3)cc2C1` [P-0068, 3-(methylamino)-1-(7-(4-(trifluoromethyl)phen-oxy)-3,4-dihydroisoquin-olin-2(1H)-yl)propan-1-one], the IC50 was 0.001 to 10 µM.

For the compound `O=C(CC1COC1)N1CCc2ccc(Oc3ccc(C(F)(F)F)cc3)cc2C1` [P-0069, 2-(oxetan-3-yl)-1-(7-(4-(trifluoromethyl)phen-oxy)-3,4-dihydroisoquin-olin-2(1H)-yl)ethan-1-one], the IC50 is 0.001 to 10 µM. For the compound `NC1=NC(=O)C(CC(=O)N2CCc3ccc(Oc4ccc(C(F)(F)F)cc4)cc3C2)S1` (stereo not shown) [P-0070, 2-amino-5-(2-oxo-2-(7-(4-(trifluoromethyl)-phenoxy)-3,4-dihydroiso-quinolin-2(1H)-yl)ethyl)-thiazol-4(5H)-one], the IC50 fell in the range of 0.001 to 10 µM. `CS(=O)(=O)NCC(=O)N1CCc2ccc(Oc3ccc(C(F)(F)F)cc3)cc2C1` [P-0071, N-(2-oxo-2-(7-(4-(trifluoromethyl)phen-oxy)-3,4-dihydroisoquin-olin-2(1H)-yl)ethyl)-methanesulfonamide]: the half-inhibitory concentration (IC50) was 0.001 to 10 µM. In the case of `O=C(CC1CS(=O)(=O)C1)N1CCc2ccc(Oc3ccc(C(F)(F)F)cc3)cc2C1` [P-0072, 2-(1,1-dioxidothietan-3-yl)-1-(7-(4-(trifluoro-methyl)phenoxy)-3,4-dihydroisoquinolin-2(1H)-yl)ethan-1-one] it was 0.001 to 10 µM. In the case of `Nc1nc(C(=O)N2CCc3ccc(Oc4ccc(C(F)(F)F)cc4)cc3C2)cs1` [P-0073, (2-aminothiazol-4-yl)(7-(4-(trifluoromethyl)phen-oxy)-3,4-dihydroisoquin-olin-2(1H)-yl)methanone] it was 0.001 to 10 µM; in that of `CS(=O)(=O)c1cccnc1C(=O)N1CCc2ccc(Oc3ccc(C(F)(F)F)cc3)cc2C1` [P-0074, (3-(methylsulfonyl)pyr-idin-2-yl)(7-(4-(trifluoro-methyl)phenoxy)-3,4-dihydroisoquinolin-2(1H)-yl)methanone], 0.001 to 10 µM. In the case of `CS(=O)(=O)c1ncc(C(=O)N2CCc3ccc(Oc4ccc(C(F)(F)F)cc4)cc3C2)s1` [P-0075, (2-(methylsulfonyl)thi-azol-5-yl)(7-(4-(trifluoro-methyl)phenoxy)-3,4-dihydroisoquinolin-2(1H)-yl)methanone] it was 0.001 to 10 µM; in that of `O=C(CCC(=O)C(F)(F)F)N1CCc2ccc(Oc3ccc(C(F)(F)F)cc3)cc2C1` [P-0076, 5,5,5-trifluoro-1-(7-(4-(trifluoromethyl)phen-oxy)-3,4-dihydroisoquin-olin-2(1H)-yl)pentane-1,4-dione], 0.001 to 10 µM.

As to `O=C(C1CS(=O)(=O)C1)N1CCc2ccc(Oc3ccc(C(F)(F)F)cc3)cc2C1` [P-0077, (1,1-dioxidothietan-3-yl)(7-(4-(trifluorometh-yl)phenoxy)-3,4-dihydro-isoquinolin-2(1H)-yl)-methanone], the IC50 was 0.001 to 10 µM. Then `CS(=O)(=O)CC(=O)N1CCc2ccc(Oc3ccc(C(F)(F)F)cc3)cc2C1` [P-0078, 2-(methylsulfonyl)-1-(7-(4-(trifluoromethyl)phen-oxy)-3,4-dihydroisoquin-olin-2(1H)-yl)ethan-1-one], with 0.001 to 10 µM; and `NC(=O)NCC(=O)N1CCc2ccc(Oc3ccc(C(F)(F)F)cc3)cc2C1` [P-0079, 1-(2-oxo-2-(7-(4-(trifluoromethyl)phen-oxy)-3,4-dihydroisoquin-olin-2(1H)-yl)ethyl)urea], with 0.001 to 10 µM; and `CS(=O)(=O)N1CC(C(=O)N2CCc3ccc(Oc4ccc(C(F)(F)F)cc4)cc3C2)C1` [P-0080, (1-(methylsulfonyl)azeti-din-3-yl)(7-(4-(trifluoro-methyl)phenoxy)-3,4-dihydroisoquinolin-2(1H)-yl)methanone], with 0.001 to 10 µM. For `CS(=O)(=O)c1cc(C(=O)N2CCc3ccc(Oc4ccc(C(F)(F)F)cc4)cc3C2)ccn1` [P-0081, (2-(methylsulfonyl)pyr-idin-4-yl)(7-(4-(trifluoro-methyl)phenoxy)-3,4-dihydroisoquinolin-2(1H)-yl)methanone], the IC50 lay in the range of 0.001 to 10 µM.

In the case of `CS(=O)(=O)c1ccc(C(=O)N2CCc3ccc(Oc4ccc(C(F)(F)F)cc4)cc3C2)cn1` [P-0082, (6-(methylsulfonyl)pyr-idin-3-yl)(7-(4-(trifluoro-methyl)phenoxy)-3,4-dihydroisoquinolin-2(1H)-yl)methanone], the IC50 fell in the range of 0.001 to 10 µM. As to `O=C1NC(=O)C(CC(=O)N2CCc3ccc(Oc4ccc(C(F)(F)F)cc4)cc3C2)N1` (stereo not shown) [P-0083, 5-(2-oxo-2-(7-(4-(trifluoromethyl)phen-oxy)-3,4-dihydroisoquin-olin-2(1H)-yl)ethyl)imid-azolidine-2,4-dione], the IC50 is 0.001 to 10 µM. In the case of `CS(=O)(=O)c1ccc(C(=O)N2CCc3ccc(Oc4ccc(C(F)(F)F)cc4)cc3C2)s1` [P-0084, (5-(methylsulfonyl)thio-phen-2-yl)(7-(4-(trifluoro-methyl)phenoxy)-3,4-dihydroisoquinolin-2(1H)-yl)methanone] it was 0.001 to 10 µM; in that of `CS(=O)(=O)CCC(=O)N1CCc2ccc(Oc3ccc(C(F)(F)F)c(F)c3)cc2C1` [P-0085, 1-(7-(3-fluoro-4-(trifluoromethyl)phen-oxy)-3,4-dihydroisoquin-olin-2(1H)-yl)-3-(methyl-sulfonyl)propan-1-one], 0.001 to 10 µM; in that of `O=C(CC1CCOC1)N1CCc2ccc(Oc3ccc(C(F)(F)F)cc3)cc2C1` (stereo not shown) [P-0086, 2-(tetrahydrofuran-3-yl)-1-(7-(4-(trifluorometh-yl)phenoxy)-3,4-dihydro-isoquinolin-2(1H)-yl)-ethan-1-one], 0.001 to 10 µM. Turning to `O=C(CC1CCOCC1)N1CCc2ccc(Oc3ccc(C(F)(F)F)cc3)cc2C1` [P-0087, 2-(tetrahydro-2H-pyran-4-yl)-1-(7-(4-(trifluoro-methyl)phenoxy)-3,4-dihydroisoquinolin-2(1H)-yl)ethan-1-one], the IC50 fell in the range of 0.001 to 10 µM. In the case of `O=C1CC(C(=O)N2CCc3ccc(Oc4ccc(C(F)(F)F)cc4)cc3C2)CN1` (stereo not shown) [P-0088, 4-(7-(4-(trifluorometh-yl)phenoxy)-1,2,3,4-tetrahydroisoquinoline-2-carbonyl)pyrrolidin-2-one], the IC50 fell in the range of 0.001 to 10 µM.

Regarding `CS(=O)(=O)C12CC(C(=O)N3CCc4ccc(Oc5ccc(C(F)(F)F)cc5)cc4C3)(C1)C2` [P-0089, (3-(methylsulfonyl)-bicyclo[1.1.1]pentan-1-yl)(7-(4-(trifluoro-methyl)phenoxy)-3,4-dihydroisoquinolin-2(1H)-yl)methanone], the IC50 is 0.001 to 10 µM. In the case of `CS(=O)(=O)CCC(=O)N1CCc2ccc(Oc3ccc(Cl)cc3)cc2C1` [P-0090, 1-(7-(4-chlorophenoxy)-3,4-dihydroisoquinolin-2(1H)-yl)-3-(methylsul-fonyl)propan-1-one] it was 0.001 to 10 µM; in that of `O=C(CCS(=O)(=O)C(F)(F)F)N1CCc2ccc(Oc3ccc(Cl)cc3)cc2C1` [P-0091, 1-(7-(4-chlorophenoxy)-3,4-dihydroisoquinolin-2(1H)-yl)-3-((trifluoro-methyl)sulfonyl)propan-1-one], 0.001 to 10 µM. Turning to `Nc1nccc(C(=O)N2CCc3ccc(Oc4ccc(C(F)(F)F)cc4)cc3C2)n1` [P-0092, (2-aminopyrimidin-4-yl)-(7-(4-(trifluoromethyl)-phenoxy)-3,4-dihydroiso-quinolin-2(1H)-yl)meth-anone], the IC50 fell in the range of 0.001 to 10 µM. With `Nc1ncc(CC(=O)N2CCc3ccc(Oc4ccc(C(F)(F)F)cc4)cc3C2)s1` [P-0093, 2-(2-aminothiazol-5-yl)-1-(7-(4-(trifluoromethyl)-phenoxy)-3,4-dihydroiso-quinolin-2(1H)-yl)ethan-1-one], the IC50 is 0.001 to 10 µM. With `CN(C)CCC(=O)N1CCc2ccc(Oc3ccc(C(F)(F)F)c(F)c3)cc2C1` [P-0094, 3-(dimethylamino)-1-(7-(3-fluoro-4-(trifluoro-methyl)phenoxy)-3,4-dihydroisoquinolin-2(1H)-yl)propan-1-one], the IC50 was 0.001 to 10 µM. For the compound `CN1CCN(CCC(=O)N2CCc3ccc(Oc4ccc(C(F)(F)F)c(F)c4)cc3C2)CC1` [P-0095, 1-(7-(3-fluoro-4-(trifluoromethyl)phenoxy)-3,4-dihydroisoquinolin-2(1H)-yl)-3-(4-methylpiperazin-1-yl)propan-1-one], the IC50 fell in the range of 0.001 to 10 µM.

These data come from US20250129028A1, “COMPOUNDS AND METHODS FOR YAP/TEAD MODULATION AND INDICATIONS THEREFOR” (Opna Bio SA, priority 2022, published 2025).
